Measured values: patent publication US20260355112A1, “HIGH-STABILITY LIPOSOME, PREPARATION METHOD THEREFOR, AND USE THEREOF” (SIRIO HEALTHCARE (ANHUI) CO., LTD., priority 2022, published 2026)

Tests used:
[1] = Microscopic observation (polarizing microscope); assay type: physicochemical; settings: under the microscope
Text: The test sample was taken on a glass slide, spread homogeneously, and covered with a cover glass to prepare a temporary mounting slide.
A transflective polarizing microscope (VPV-900) was used. The specific procedures were as follows: adjust the brightness, fix the temporary mounting slide on the stage, align the light aperture with a low-power objective lens, and adjust the coarse focus screw until the field of view is clear. If the clarity is insufficient, use the fine focus screw for further adjustment or switch to a high-power objective lens for observation.
Bright spots can be observed in the middle of the sample in the field of view, which were crystalline structures.

[2] = background statement; cited from earlier work

For `COC1=C(OC)C(=O)C(C/C=C(\C)CC/C=C(\C)CC/C=C(\C)CC/C=C(\C)CC/C=C(\C)CC/C=C(\C)CC/C=C(\C)CC/C=C(\C)CC/C=C(\C)CCC=C(C)C)=C(C)C1=O` [Coenzyme Q10, coenzyme Q10], the Microscopic structure ([1]; listed as coenzyme Q10 raw material) is listed as “irregular crystalline structures”, the Microscopic structure ([1]; listed as raw material of coenzyme Q10) is listed as “irregular crystal structure” and the “Antioxidant capacity relative to vitamin E” value [2] is listed as 50 times.
